Assays:
B. cinerea = experiment: In-vitro mycelium growth inhibition on CaP-amended PDA; assay type: cell-based, Botrytis cinerea; settings: six isolates, pH 6.0, 25° C. dark
Procedure: (§1) A 10% buffered (pH 6.0) stock solution in autoclaved de-ionized water was used to prepare working calcium propionate solutions. Initially, five concentrations of 0, 1, 5, 25, and 100 ppm were screened for determining the effect of calcium propionate on fungal mycelia. Higher concentrations of 300, 900, 2700, and 8100 ppm were also tested in mycelium growth inhibition assays to determine EC50 values for isolates sensitive and resistant to FRAC codes 1, 2, 7, 9, 11, 12, 13, and 17 (i.e., benzimidazoles, quinone outside inhibitors, dicarboxamides, succinate dehydrogenases, phenylpyrroles, demethylation inhibitor fungicides, and anilinopyrimidines respectively).
(§2) To prepare different concentrations, calculated amount of stock solution was mixed in autoclaved (121 C for 20 mins) potato dextrose agar (PDA) after the media cooled down to appropriate temperature. […] Mycelium growth diameter was measured using a vernier caliper just before the mycelium growth of two colonies in the control media plate overlapped. […] Mycelium inhibition rates were calculated and EC50 values were determined. Additionally, the fungistatic activity of calcium propionate was determined at 8000 mg/L (0.8%; pH 6.0) concentration, buffered at pH 6 with acetic acid. […] Mycelium growth was recorded every 24 h using a vernier caliper until fungal mycelia in control treatments reached the 90 mm in diameter petri dish rim.

C. siamense = experiment: as above; assay type: cell-based, Colletotrichum siamense
Procedure: as §1, §2

[1] = tested on: all four pathogens (B. cinerea, M. fructicola, A. alternata, C. siamense); experiment: In-vitro mycelium growth inhibition, statements pooled over all four pathogens; assay type: cell-based
Procedure: as §1
To prepare different concentrations, calculated amount of stock solution was mixed in autoclaved (121 C for 20 mins) potato dextrose agar (PDA) after the media cooled down to appropriate temperature. Amended media with different CaP concentrations was poured in to 15×100 mm petri dishes (VWR International, LLC., Radnor, PA), and left to solidify. For mycelium growth, 5 mm plugs were obtained from the edges of freshly grown seven-day old cultures from all 24 isolates of different fungal genera including Alternaria sp., Botrytis sp., Colletotrichum sp., and Monilinia sp. (Table 1). Two culture plugs of each isolate were placed near opposite edges of individual CaP amended PDA media plates. The media plates with no CaP (0 ppm) served as control treatment. Inoculated plates were then incubated at 25° C. in dark for 7-10 days. Mycelium growth diameter was measured using a vernier caliper just before the mycelium growth of two colonies in the control media plate overlapped. […] Mycelium inhibition rates were calculated and EC50 values were determined. Additionally, the fungistatic activity of calcium propionate was determined at 8000 mg/L (0.8%; pH 6.0) concentration, buffered at pH 6 with acetic acid. […] Mycelium growth was recorded every 24 h using a vernier caliper until fungal mycelia in control treatments reached the 90 mm in diameter petri dish rim.

petunia flowers = experiment: Phytotoxicity on harvested petunia flowers after spray application; assay type: in vivo, Petuniaxhybrida 'Dreams burgundy picotee'
Procedure: (§3) Calcium propionate concentrations were prepared by adding appropriate amounts in de-ionized water and tested in four separate experiments. Spray applications at 1.25%, 2.5%, and 5% (pH 7.7 and buffered with acetic acid to pH 6.5) (first experiment) and 0.5%, 0.75%, and 1% buffered with acetic acid to pH 6.5 (second experiment) were made on harvested open petunia flowers. Separately, spray applications at 0.1%, 0.2%, 0.3%, (third experiment) 0.5%, 0.75%, and 1% (fourth experiment) buffered with acetic acid to pH 6.5 were made on harvested open petunia flowers. Approximately 24 hours after spray applications, the flowers were arranged in humid chambers maintaining relative humidity of 98-100% and inoculated by spraying spore suspension (10^4 spores/ml) of B. cinerea isolate PDRK3 (Bennett et al. 2019). Fungicide applications and spore suspensions were misted onto flowers until runoff to completely cover the flower using a 4 oz clear PET plastic bullet bottle with white mist sprayer (The Cary Company, Addison, IL). The petunia flowers were evaluated 72 h after inoculation to observe botrytis blight severity and phytotoxicity using ratings from 0 to 8 scale based on the area of infected corolla (0=no infection; 8=complete necrosis), modified from Bennett (2019). Pydiflumethophen+fludioxonil (sold under the trademark MIRAVIS™ PRIME; Syngenta, Raleigh, NC) was used as a commercial fungicide control along with a non-inoculated and an inoculated control. Ten flowers were evaluated per treatment and the entire experiment was repeated twice.

M. fructicola = experiment: In-vitro mycelium growth inhibition on CaP-amended PDA; assay type: cell-based, Monilinia fructicola; settings: six isolates, pH 6.0, 25° C. dark
Procedure: as §1, §2

cut roses = experiment: Phytotoxicity on cut roses after submerging flower-head; assay type: in vivo, cultivar Orange Crush
Procedure: (§4) Calcium propionate concentrations of 0.1%, 0.2%, 0.3%, 0.5%, 0.75%, 1% (pH 6.0), were prepared and tested against Botrytis blight on cut roses. Treatments were applied by submerging flower-head of 15 sec in the solutions of the treatments and gently moving the flowers up and down to allow the petals to open and help the product get in touch with the most internal petals. Then, the flowers were placed vertically in open PVC boxes over heavy-duty thermoformed trays (Greenhouse Megastore, Danville, IL) containing 3 L of water. The boxes and trays were placed inside open humid chambers for 24 h, then the flowers were sprayed with a Botrytis cinerea spore suspension at 10^5 spores/ml from the previously characterized isolate S4GBR4O (Muñoz et al., 2019). The humid chambers were closed, and data collection of disease severity was taken 3, 5, and 7 days after the inoculation. Relative humidity in the humid chambers was maintained in a range of 97-100% which was verified using a psychrometer (RH300, Extech Instruments, Nashua, NH, US). Observational data on phytotoxicity symptoms were also collected. Additionally, an inoculated control, Pydiflumethophen+Fludioxonil (sold under the trademark MIRAVIS™ PRIME; Syngenta, Raleigh, NC), and a non-inoculated treatment were included in the evaluation. The experiment with CaP treatments of 0.5%, 0.75%, and 1% (pH 6.0) were conducted only once due to phytotoxicity issues. All lower dose treatments were performed twice.

[2] = tested on: Botrytis cinerea isolate S4GBR4O; experiment: Botrytis blight severity on cut roses after submerging flower-head; assay type: in vivo
Procedure: as §4

B. cinerea isolate PDRK3 = experiment: Botrytis blight severity on harvested petunia flowers after spray application; assay type: in vivo, Botrytis cinerea
Procedure: as §3

A. alternata = experiment: In-vitro mycelium growth inhibition on CaP-amended PDA; assay type: cell-based, Alternaria alternata
Procedure: as §1, §2

[3] = 8000 ppm (0.8%; pH 6.0), after 2-4 days, growth rate reaching untreated control
[4] = six isolates, amended PDA, pH 6.0, 25° C. dark

CCC(=O)[O-].CCC(=O)[O-].[Ca+2] [CaP, calcium propionate]
mean EC50 mycelium growth (B. cinerea): 527.77 µg/mL | mycelium growth recovery after initial inhibition (C. siamense; [3]): recovered quickly | mean EC50 mycelium growth (C. siamense; [4]): 1310.34 µg/mL | mycelium growth inhibition ([1]; 8000 ppm (0.8%; pH 6.0), after 2-4 days of incubation): ~100% | maximum inhibition of fungal mycelium growth ([1]; CaP 1, 5, 25, and 100 mg/L, preliminary experiments): below 20% | mean EC50 of fungicide-sensitive versus fungicide-resistant isolates ([1]; isolates sensitive vs resistant to commonly used FRAC groups): not significantly different | phytotoxicity (petunia flowers; experiment three, 0.1% (pH 6.5)): barely noticeable | phytotoxicity, difference to untreated control (petunia flowers; experiment three, 0.1% CaP (pH 6.5)): no significant difference | phytotoxicity (petunia flowers; experiment three, lower concentrations 0.1%-0.3% (pH 6.5)): very little to no phytotoxicity | phytotoxicity (petunia flowers; experiment two, 0.5% (pH 6.5)): barely noticeable | phytotoxicity (petunia flowers; experiment two, 0.75% and 1% (pH 6.5)): noticeable phytotoxicity | phytotoxicity (bleaching of petunia flower tissue) (petunia flowers; first experiment, 1.25%, 2.5%, and 5% CaP (pH 6.5 and 7.7)): Evidence of phytotoxicity was observed | phytotoxicity (bleaching of petunia flower tissue) (petunia flowers; fourth experiment, 0.5%, 0.75%, and 1% CaP (pH 6.5), increased with increasing concentrations): Evidence of phytotoxicity was observed | mean EC50 mycelium growth (M. fructicola): 618.25 µg/mL | phytotoxicity (cut roses; 0.1% CaP (pH 6.0)): no to barely noticeable phytotoxicity | phytotoxicity symptoms (cut roses; 0.3% and 0.2% CaP (pH 6.0)): minor symptoms of phytotoxicity | size of phytotoxicity spots (cut roses; 0.3% and 0.2% CaP (pH 6.0)): 1-2 mm | phytotoxicity symptoms (cut roses; 0.5% CaP (pH 6.0) and higher, rounded areas in outermost petals, discolored edges): phytotoxicity symptoms were observed | botrytis blight severity, difference to inoculated control ([2]; first rose experiment, 0.5%, 0.75%, and 1% CaP (pH 6.0)): No statistical differences | efficacy against botrytis blight compared to grower standard ([2]; second rose experiment, 0.1% (pH 6.0) CaP): as effective as the grower standard Miravis Prime | efficacy against botrytis blight compared to 0.3% CaP ([2]; second rose experiment, 0.1% CaP (pH 6.0)): significantly higher efficacy | control efficacy with increase in concentration (B. cinerea isolate PDRK3; 0.75% to 1% (fourth experiment) and 0.1% to 0.3% (third experiment), pH 6.5): did not correspond to an increase in control efficacy | disease severity (B. cinerea isolate PDRK3; experiment three, all CaP treatments 0.1%, 0.2%, 0.3% (pH 6.5)): reduced disease severity | botrytis blight control compared to the 0.5% treatment (B. cinerea isolate PDRK3; experiment two, 0.75% and 1.0% CaP (pH 6.5)): significantly better control | disease severity (B. cinerea isolate PDRK3; experiment two, all CaP treatments 0.5%, 0.75%, 1% (pH 6.5)): reduced disease severity | botrytis blight control, lower pH vs higher pH treatment (B. cinerea isolate PDRK3; first experiment, 1.25% CaP, pH 6.5 compared to pH 7.7): significantly better control | control efficacy with increase in concentration (B. cinerea isolate PDRK3; first experiment, increase from 1.25% to 5%): did not correspond to an increase in control efficacy | botrytis blight severity vs inoculated control (B. cinerea isolate PDRK3; first experiment, spray 1.25%, 2.5%, and 5% (pH 6.5 and 7.7), 72 h after inoculation): reduced botrytis blight compared to the inoculated control | botrytis blight severity vs inoculated control (B. cinerea isolate PDRK3; third and fourth experiments, all CaP concentrations 0.1%-1% at pH 6.5): reduced botrytis blight compared to the inoculated control | mycelium growth recovery after initial inhibition (A. alternata; [3]): recovered quickly | mean EC50 mycelium growth (A. alternata; [4]): 1354.87 µg/mL

— patent US20240180153A1, “METHODS FOR MANAGING DISEASES IN CUT FLOWERS” (Niacet Corporation, priority 2022, published 2024)
